Data from PMC7586456 (ACS Pharmacology & Translational Science, 2020).

Test system: SARS CoV-2 (USA_WA1/2020)

Compound | rescue of SARS-CoV-2 CPE (in words)
CCN1CCN(Cc2ccc(Nc3ncc(F)c(-c4cc(F)c5nc(C)n(C(C)C)c5c4)n3)nc2)CC1 [abemaciclib] | protected against SARS-CoV-2 induced CPE, but to lesser degrees than cepharanthine
CC1=C[C@]23C(=O)[C@@H](C=C(CO)[C@@H](O)[C@]2(O)[C@H]1O)[C@H]1[C@@H](C[C@H]3C)C1(C)C [ingenol] | protected against SARS-CoV-2 induced CPE, but to lesser degrees than cepharanthine
C=CC(=O)Nc1cc(Nc2nccc(-c3cn(C)c4ccccc34)n2)c(OC)cc1N(C)CCN(C)C [osimertinib] | protected against SARS-CoV-2 induced CPE, but to lesser degrees than cepharanthine
CC(CN(C)C)CN1c2ccccc2CCc2ccccc21 (stereo not shown) [trimipramine] | protected against SARS-CoV-2 induced CPE, but to lesser degrees than cepharanthine
